Patent US4868204A, “Mycalamide compounds, compositions thereof and methods of preparation and use” (Harbor Branch Oceanographic Institution, Inc., priority 1988, dated 1989)
Where two headings read alike, the source gives them in different places.

Tests used:
P338 tumor = assay: in vivo P388 tumor procedure in mice (% T/C)
Procedure: (§1) Antitumor effectiveness of mycalamide A was also evaluated using a standardized in vivo procedure by injecting mice with the test material starting 24 hours after P338 tumor implantation. A T/C value is calculated using the formula % T/C=Median survival of test group/Median survival of control group×100%, A T/C value above 130% is considered significant.

P388 mouse leukemia cell = assay: in vitro P388 mouse leukemia cell assay; type: cell-based; conditions: 50% inhibition of cell replication vs untreated cultures
Procedure: Antitumor effectiveness of the compounds of the invention was evaluated using a standardized in vitro P388 mouse leukemia cell assay protocol disclosed in U.S. Pat. No. 4,731,366 with the antitumor activity being expressed in IC50 (concentration that results in 50% inhibition of cell replication normalized to untreated cultures) determined with a log-log transform of data and expressed as xx ng/ml. As an example, for mycalamide A the P388 assay value was […]

A59 = test system: A59; set-up: species or system mice; conditions: mouse, in vivo, 0.1 mg/kg
mice = conditions: mouse, in vivo
B16 murine melanoma = assay: in vivo B16 murine melanoma assay
Procedure: as §1
In vivo antitumor activity of mycalamide A was also tested with an B16 murine melanoma assay resulting in the following data: […]

`C=C1C[C@](OC)([C@H](O)C(=O)N[C@H]2OCO[C@H]3[C@@H]2O[C@H](C[C@H](O)CO)C(C)(C)[C@@H]3OC)O[C@H](C)[C@@H]1C` [mycalamide A, Mycalamide A] was tested, and the “Median T/C %” value (P338 tumor; 0.0012 mg/kg, 2nd series) was 117%, the “Median T/C %” value (P338 tumor; 0.0025 mg/kg, 1st series) was 137% and the “Median T/C %” value (P338 tumor; 0.0025 mg/kg, 2nd series) was 122%. For the same compound, the “Median T/C %” value (P338 tumor; 0.005 mg/kg, 1st series) was 132%, the “Median T/C %” value (P338 tumor; 0.005 mg/kg, 2nd series) was 133% and the “Median T/C %” value (P338 tumor; 0.01 mg/kg, 1st series) was 116%. For the same compound, the “Median T/C %” value (P338 tumor; 0.01 mg/kg, 2nd series) was 156%, the “Median T/C %” value (P338 tumor; 0.02 mg/kg, 1st series) was “Toxic” and the “Median T/C %” value (P338 tumor; 0.02 mg/kg, 2nd series) was 106%. The “P388 IC50” value (P388 mouse leukemia cell) was 1.6 ng/mL, the Cumulative mortality (A59) was 0% and the Cumulative mortality (mice; 0.01 mg/kg, 48 h) was 0%. It also gave a Cumulative mortality (mice; 0.01 mg/kg, 96 h) of 0%, a Cumulative mortality (mice; 0.01 mg/kg, 144 h) of 0% and a Cumulative mortality (mice; 0.01 mg/kg, 192 h) of 0%. It also gave a Cumulative mortality (mice; 0.01 mg/kg, 240 h) of 0%, a Cumulative mortality (mice; 0.01 mg/kg, 288 h) of 0% and a Cumulative mortality (mice; 0.01 mg/kg, 336 h) of 0%. It also gave a Cumulative mortality (mice; 0.1 mg/kg, 48 h) of 0%, a Cumulative mortality (mice; 0.1 mg/kg, 96 h) of 0% and a Cumulative mortality (mice; 0.1 mg/kg, 144 h) of 0%. It also gave a Cumulative mortality (mice; 0.1 mg/kg, 192 h) of 0%, a Cumulative mortality (mice; 0.1 mg/kg, 240 h) of 0% and a Cumulative mortality (mice; 0.1 mg/kg, 288 h) of 0%. For the same compound, the Cumulative mortality (mice; 0.1 mg/kg, 336 h) was 0%, the Cumulative mortality (mice; 1 mg/kg, 48 h) was 0% and the Cumulative mortality (mice; 1 mg/kg, 96 h) was 0%. It also gave a Cumulative mortality (mice; 1 mg/kg, 144 h) of 100%, a Cumulative mortality (mice; 1 mg/kg, 192 h) of 100% and a Cumulative mortality (mice; 1 mg/kg, 240 h) of 100%. For the same compound, the Cumulative mortality (mice; 1 mg/kg, 288 h) was 100%, the Cumulative mortality (mice; 1 mg/kg, 336 h) was 100% and the Cures (B16 murine melanoma; 0.0625 mg/kg) was 0. For the same compound, the “Median T/C %” value (B16 murine melanoma; 0.0625 mg/kg) was 197%, the Cures (B16 murine melanoma; 0.125 mg/kg) was 0 and the “Median T/C %” value (B16 murine melanoma; 0.125 mg/kg) was 189%. The Cures (B16 murine melanoma; 0.5 mg/kg) was 0 and the “Median T/C %” value (B16 murine melanoma; 0.5 mg/kg) was “Toxic”.
